Source: ChEMBL document CHEMBL1150604, “Convolutindole A and convolutamine H, new nematocidal brominated alkaloids from the marine bryozoan Amathia convoluta” (2002)
Activity calls are given as the source filed them. No cut-off for these calls is given here.

Columns and labels:
Heteropogon contortus = test: Nematocidal activity against […] McMaster assessed as inhibition of nematode larval development after 5 days; type: functional
Bacillus subtilis [1] = test: Antibacterial activity against Bacillus subtilis ATCC 6633 at 100 ug/ml after 24 hrs by agar-based microtiter plate assay; type: functional, organism-based
Saccharomyces cerevisiae [2] = test: Antifungal activity against Saccharomyces cerevisiae ATCC 9763 at 200 ug/ml after 24 hrs by agar-based microtiter plate assay; type: functional, organism-based
Bacillus subtilis [3] = test: Antibacterial activity against Bacillus subtilis ATCC 6633 after 24 hrs by agar-based microtiter plate assay; type: functional
Bacillus subtilis [4] = conditions: ATCC 6633, 50 ug/ml
Description: Antibacterial activity against Bacillus subtilis ATCC 6633 at 50 ug/ml after 24 hrs by agar-based microtiter plate assay

Saccharomyces cerevisiae [5] = conditions: ATCC 9763, 50 ug/ml
Description: Antifungal activity against Saccharomyces cerevisiae ATCC 9763 at 50 ug/ml after 24 hrs by agar-based microtiter plate assay

`CNCCc1c(Br)c(Br)c(Br)c(OC)c1OC` [CONVOLUTAMINE H] was tested, and the LD99 (Heteropogon contortus) was 0.2 µg/mL, the LD99 (Bacillus subtilis [1]) was “inactive” and the LD99 (Saccharomyces cerevisiae [2]) was “inactive”.

`COc1c(Br)cc(Br)c2c(CCN(C)C)c(Br)n(OC)c12` [CONVOLUTINDOLE A] was tested, and the LD99 (Heteropogon contortus) was 0.39 µg/mL, the LD99 (Bacillus subtilis [3]) was 50 µg/mL and the LD99 (Saccharomyces cerevisiae [2]) was “inactive”.

`c1ccc([C@H]2CN3CCSC3=N2)cc1` [LEVAMISOLE] was tested, and the LD99 (Heteropogon contortus) was 1.6 µg/mL, the LD99 (Bacillus subtilis [4]) was “inactive” and the LD99 (Saccharomyces cerevisiae [5]) was “inactive”.
